Values belong to the compound of their own block, whether it stands above or below them.
Experiments:
[1] = test system: FPu18T (DNA, G4) AGGGTGGGGAGGGTGGGG; experiment: FRET melting; conditions: 60 mM K+; 0.2 μM DNA, 1.0 μM compound (methods text: 2 μM, 100 mM LiCl); cacodylate pH 7.4
[2] = test system: Fc-kit1T (DNA, G4) AGGGAGGGCGCTGGGAGGAGGG; experiment: FRET melting; conditions: 60 mM K+; 0.2 μM DNA, 1.0 μM compound (methods text: 2 μM, 100 mM LiCl); cacodylate pH 7.4
[3] = test system: Fc-kit1T (DNA, G4) AGGGAGGGCGCTGGGAGGAGGG; experiment: microscale thermophoresis; conditions: 100 mM K+; 10 mM Tris-HCl pH 7.4
[4] = test system: F21T (DNA, G4) GGGTTAGGGTTAGGGTTAGGG; experiment: FRET melting; conditions: 60 mM K+; 0.2 μM DNA, 1.0 μM compound (methods text: 2 μM, 100 mM LiCl); cacodylate pH 7.4
[5] = test system: F10T (DNA, hairpin, hexaethylene glycol (HEG) linker between nucleotides 10 and 11) TATAGCTATATATAGCTATA; experiment: FRET melting; conditions: 60 mM K+; 0.2 μM DNA, 1.0 μM compound (methods text: 2 μM, 100 mM LiCl); cacodylate pH 7.4

SMILES: COc1cc2c(cc1OC)-c1cc3ccc(OC)c(OC)c3c[n+]1CC2
ΔTm [1]: 11.2 ± 0.1 °C
Kd [3]: 3.25 ± 0.32 µM
ΔTm [4]: 1.8 ± 0.2 °C

SMILES: COc1cc2c(cc1OC)-c1cc3ccc(OC)c(OCC(=O)N[C@@H](Cc4ccccc4)C(=O)N[C@@H](CCCCN)C(=O)N[C@@H](CCCN=C(N)N)C(N)=O)c3c[n+]1CC2
Kd [3]: 6.60 ± 0.472 µM

SMILES: COc1cc2c(cc1OC)-c1cc3ccc(OC)c(OCC(=O)N[C@@H](CCCCN)C(=O)N[C@@H](CCCNC(=N)N)C(N)=O)c3c[n+]1CC2
Kd [3]: 2.65 ± 0.33 µM

SMILES: COc1cc2c(cc1OC)-c1cc3ccc(OC)c(OCC(=O)N[C@@H](CCCNC(=N)N)C(=O)N[C@@H](CCCNC(=N)N)C(N)=O)c3c[n+]1CC2
ΔTm [1]: 19.6 ± 0.9 °C
Kd [3]: 1.47 ± 0.12 µM
ΔTm [4]: 10.6 ± 0.2 °C

The remaining lines, values ahead:

ΔTm [1]: 23.8 ± 0.6 °C
ΔTm [2]: 21.7 ± 0.8 °C
Kd [3]: 1.41 ± 0.09 µM
ΔTm [4]: 11.0 ± 0.1 °C
ΔTm [5]: 0.8 ± 0.4 °C
SMILES: COc1cc2c(cc1OC)-c1cc3ccc(OC)c(OCC(=O)N[C@@H](Cc4ccccc4)C(=O)N[C@@H](CCCNC(=N)N)C(N)=O)c3c[n+]1CC2

Kd [3]: 9.68 ± 0.57 µM
ΔTm [5]: 0.0 ± 1.0 °C
SMILES: COc1cc2c(cc1OC)-c1cc3ccc(OC)c(OCC(=O)N[C@@H](Cc4ccccc4)C(=O)N[C@@H](Cc4cnc[nH]4)C(=O)N[C@@H](CCCNC(=N)N)C(N)=O)c3c[n+]1CC2

ΔTm [1]: 5.0 ± 1.0 °C
ΔTm [2]: 6.1 ± 0.9 °C
Kd [3]: 11.10 ± 0.51 µM
SMILES: COc1cc2c(cc1OC)-c1cc3ccc(OC)c(OCC(=O)N[C@@H](Cc4ccccc4)C(=O)NCC(=O)N[C@@H](CCCCN)C(N)=O)c3c[n+]1CC2

Kd [3]: 8.00 ± 0.89 µM
ΔTm [4]: 0.0 ± 1.2 °C
SMILES: COc1cc2c(cc1OC)-c1cc3ccc(OC)c(OCC(=O)N[C@@H](CCCCN)C(=O)N[C@@H](Cc4ccccc4)C(=O)N[C@@H](CCCNC(=N)N)C(N)=O)c3c[n+]1CC2
